In patent publication US20080206761A1, “Ex Vivo Gene Expression in Whole Blood as a Model of Assessment of Individual Variation to Dietary Supplements” (priority 2005, published 2008):

Legend:
[1] = test system: IL-4 mRNA; experiment: PHA-induced IL-4 mRNA expression in heparinized whole blood ex vivo; assay type: cell-based, human; details: for ΔΔCt (mean ± standard deviation, n = 3), IL-4 mRNA: supplement 30 min, then 100 μg/mL PHA 2 h, concentrations per footnote
Method: (§1) In this embodiment, phytohemagglutinin-induced gene expression of interleukin-2 (IL-2), interleukin-4 (IL-4), and tumor necrosis factor-α (TNF-α) were quantitated in the following manner. Fifty μL of heparinized whole blood was incubated with various dietary supplements for a period of 30 minutes. The following supplements were employed: vitamins A, C, and D, epigallocatechin gallate (from green tea), genistein (from soy), and curcumin (from the spice turmeric). Vitamin A is known to stimulate the immune system. […] Vitamin D appears to have protective effects against certain cancers. Epigallocatechin gallate is a powerful antioxidant, appears to reduce the multidrug resistance found in cancer cells, and preferentially induces apoptosis in neoplastic cells. Genistein has been found in some studies to have anticarcinogenic activity; possible mechanisms of action include upregulation of apoptosis, inhibition of angiogenesis, inhibition of DNA topoisomerase II and inhibition of protein tyrosine kinases. Curcumin has proapoptotic effects in neoplastic cells and interferes with the activity of the transcription factor NF-κB, which is often highly overexpressed in such cells.
(§2) After incubation with the dietary supplement, 100 μg/mL phytohemagglutinin (PHA) was added and incubation was continued for an additional 2 hours at 37° C. The concentration of each dietary supplement (see Table I, note) was slightly higher than reported blood levels. Then mRNA was purified, cDNA was synthesized, and the levels of IL-2, IL-4, and TNF-α were quantitated by TaqMan real time polymerase chain reaction (PCR) (see Holland, et al., “Detection of specific polymerase chain reaction product by utilizing the 5′ to 3′ exonuclease activity of Thermus aquaticus DNA polymerase,” Proc Natl Acad Sci USA 1991; 88: 7276-80), as described below.
(§3) The mRNA and cDNA were prepared from the whole blood that was exposed to the dietary components, as well as the whole blood which remained unexposed. In brief, home-made 96-well filterplates were placed over collection plates, and 150 μl 5 mM Tris, pH 7.4, was applied. Following centrifugation at 120×g for 1 min at 4° C., 50 μl of blood samples were applied to each well and immediately centrifuged at 120×g for 2 min at 4° C., followed by washing of each well with 300 μl PBS once with centrifugation at 2000×g for 5 min at 4° C. Then, 60 μl stock lysis buffer, containing for example 0.5% N-Lauroylsarcosine, 4×SSC, 10 mM Tris HCl, pH 7.4, 1 mM EDTA, 0.1% IGEPAL CA-630, and 1.791 M guanidine thiocyanate, supplemented with 1% 2-mercaptoethanol (Bio Rad, Hercules, Calif., USA), 0.5 mg/ml proteinase K (Pierce, Rockford, Ill., USA), 0.1 mg/ml salmon sperm DNA (5 Prime Eppendorf/Brinkmann, Westbury, N.Y., USA), 0.1 mg/ml E. coli tRNA (Sigma), a cocktail of 10 mM each of the specific reverse primers shown in Table 2, and standard RNA34 oligonucleotides, were applied to the filterplates, followed by incubation at 37° C. for 10 min. The filterplates were then placed over oligo(dT)-immobilized microplates (GenePlate, RNAture), and centrifuged at 2000×g for 5 min at 4° C. Following overnight storage at 4° C., the microplates were washed with 100 μl plain lysis buffer 3 times, followed by 150 μl of wash buffer (0.5 M NaCl, 10 mM Tris, pH 7.4, 1 mM EDTA) 3 times at 4° C. The cDNA was directly synthesized in each well by adding 30 μl of buffer containing 1×RT-buffer, 1.25 mM each of dNTP, 4 units rRNasin, and 80 units of MMLV reverse transcriptase (Promega) (without primers), and incubation at 37° C. for 2 hours. The specific primer-primed cDNA existed in solution, and oligo(dT)-primed cDNA stayed immobilized in the microplate. […]

[2] = test system: TNF-α mRNA; experiment: PHA-induced TNF-α mRNA expression in heparinized whole blood ex vivo; assay type: cell-based, human; details: supplement 30 min, then 100 μg/mL PHA 2 h, concentrations per footnote
Method: as §1, §2, §3

**Q.** `CC1=C(/C=C/C(C)=C/C=C/C(C)=C/CO)C(C)(C)CCC1` [VA, vitamin A] was tested. Which “ΔΔCt (mean ± standard deviation, n = 3), IL-4 mRNA” value ([1]; Subject 1) did it give?
**A.** −2.14 ± 0.08

**Q.** And the “ΔΔCt (mean ± standard deviation, n = 3), IL-4 mRNA” value ([1]; Subject 2)?
**A.** −1.56 ± 0.34

**Q.** What about the “ΔΔCt (mean ± standard deviation, n = 3), IL-4 mRNA” value ([1]; Subject 3) of the same compound?
**A.** −0.15 ± 0.40

**Q.** What about the “ΔΔCt (mean ± standard deviation, n = 3), IL-4 mRNA” value ([1]; Subject 4) of the same compound?
**A.** −0.98 ± 0.41

**Q.** And the “ΔΔCt (mean ± standard deviation, n = 3), IL-4 mRNA” value ([1]; Subject 5)?
**A.** −1.24 ± 0.13

**Q.** And the “ΔΔCt (mean ± standard deviation, n = 3), IL-4 mRNA” value ([1]; Subject 6)?
**A.** −0.65 ± 0.09

**Q.** What about the “ΔΔCt (mean ± standard deviation, n = 3), IL-4 mRNA” value ([1]; Subject 7) of the same compound?
**A.** −1.15 ± 0.39

**Q.** And the “effect on PHA-induced IL-4 expression, in words” value ([1]; summary over 7 subjects of Table I)?
**A.** enhanced IL-4 expression, with 1-3 exceptions

**Q.** What about the “ΔΔCt (mean ± standard deviation, n = 3), TNFα mRNA” value ([2]; Subject 1) of the same compound?
**A.** −1.56 ± 0.11

**Q.** What about the “ΔΔCt (mean ± standard deviation, n = 3), TNFα mRNA” value ([2]; Subject 2) of the same compound?
**A.** −0.57 ± 0.94

**Q.** What about the “ΔΔCt (mean ± standard deviation, n = 3), TNFα mRNA” value ([2]; Subject 3) of the same compound?
**A.** 0.51 ± 0.03

**Q.** And the “ΔΔCt (mean ± standard deviation, n = 3), TNFα mRNA” value ([2]; Subject 4)?
**A.** −0.08 ± 0.29

**Q.** What about the “ΔΔCt (mean ± standard deviation, n = 3), TNFα mRNA” value ([2]; Subject 5) of the same compound?
**A.** −0.76 ± 0.34

**Q.** And the “ΔΔCt (mean ± standard deviation, n = 3), TNFα mRNA” value ([2]; Subject 6)?
**A.** −0.50 ± 0.10

**Q.** What about the “ΔΔCt (mean ± standard deviation, n = 3), TNFα mRNA” value ([2]; Subject 7) of the same compound?
**A.** −1.11 ± 0.24
